Test [1] addresses T1, AMPK-WT (His-tagged AMPK containing α1β1γ1 protein) (Rattus norvegicus, UniProt P54645+P80385).
T1 construct: His (N); made in house
Description: SPR analysis of binding to purified wild-type AMPK. How it is done: Mammalian AMPK subunits (His-α1, β1, and γ1) were cloned into a pET-3d vector, and protein expression and purification were similar to the literature.
SPR analysis was performed with a Biacore T200 instrument (GE Healthcare). Firstly, the purred His-tagged AMPK containing α1β1γ1 protein was captured onto an activated carboxymethylated 5 (CM5) chip using amine coupling to levels ranging from 4000 RU to 6000 RU. Secondly, GENI was dissolved in PBS-P buffer solution (0.05% (v/v) Tween 20 and PBS), and the concentration of GENI was 64 μM. […] The sample was filtered by pumping through a […] membrane. A gradient concentration of GENI was injected at a flow rate of 30 μL/min in a running buffer (0.05% (v/v) Tween 20 and PBS). The data were analyzed with Biacore evaluation software (T200 version 2.0) and fitted to the 1:1 Langmuir binding model, and the kinetic parameters were derived.

A further test concerns MAPK. As to the kind of experiment: Drug affinity responsive target stability (DARTS), MAPK. The following applies: 0.1–100 μM GENI, protein: pronase 5:1. The format is binding. The protocol: Cells were lysed by RIPA lysis buffer, and the protein concentration was measured. The lysate was divided into six groups. Before incubation with protease (protein: pronase = 50:1 w/w for PI3K and AMPK detection, 5:1 for MAPK detection, 100:1 for p53 detection) for 25 min in 25 °C, 0.1–100 μM GENI was added to lysates and incubated for 2 h at room temperature. The samples were mixed with loading buffer and then separated on 8% SDS-PAGE for immunoblotting analysis.

A further test has as its system BV-2 cells. Description: IL-6 ELISA and NO assay in BV-2 cell culture supernatant. The format is cell-based, murine. The following applies: LPS 1 μg/mL. The protocol:
ELISA analysis for NO and interleukin-6 (IL-6) was performed according to the manufacturer described in the material and methods section in Supplementary Information. […]
for 15 seconds, 68 ℃ for 20 seconds. All results were normalized to GAPDH RNA levels, and relative mRNA transcript levels were calculated using the ΔΔCt formula.
1.2. Enzyme-linked immunosorbent assay
BV-2 cells were treated with LPS (1 μg/mL) in the absence or presence of GENI (1, 3 and 10 μM). The cell supernatant was collected at different time points for proinflammatory mediator assay (8 h for IL-6 and 24 h for NO). NO production was quantified using an NO assay kit (S0021S, Beyotime, China), and IL-6 was detected using commercial ELISA kits (EM004, ExCell, China) according to the manufacturer’s instructions.
For NO content evaluation, firstly, the NO assay kit was removed, and Griess Reagents I and II were warmed to room temperature. The standard substance was diluted with cell culture solution to 0, 1, 2, 5, 10, 20, 40, 60 and 100 μM. […] The absorbance was determined with a microplate reader (BioTek, California, USA) at 540 nm. […]
15.625 and 0 pg/mL for use, and blank holes were set. […] About 100 μL of termination solution was added to each hole, and we measured the OD450 value immediately after mixing with a microplate reader (BioTek, California, USA).

The next test deals with natural aging AD mice. As to the kind of experiment: Behaviour tests in naturally aged mice with AD. The format is in vivo. The protocol: Each group had 10 mice. GENI was dissolved in ultrapure water and administered by gavage, whereas Dor was dissolved in normal saline. The pH was adjusted to pH 5 with 0.1 M hydrochloric acid to the clarified solution and administered by intraperitoneal injection. The dosing experiment also lasted 10 weeks. Animal behavioral experiments and sampling at the end of the animal experiment were performed as described above.
The Y-maze is mainly used to study the spatial working memory ability of rodents. The Y-maze consisted of three equal-length arms (50 cm × 18 cm × 35 cm), and the angle between each two arms was 120 degrees. The mice were placed at the end of any arm of the Y-maze and allowed to explore freely for 8 min. The behavioral changes including the total number of entries and alternation (successively entering all three arms of the Y-maze once in turn) were recorded. Percentage altercation = alternation/(entries-2) × 100%. The Y-maze could effectively reflect the ability of animals to recognize and remember novel environments.
NOR was used to detect memory in rodents. We prepared a 40 × 40 × 40 cm square box, camera equipment, and behavioral analysis software. We chose three objects A, B, and C, where objects A and B were exactly the same, and object C was very different from objects A and B. After the start of the experiment, the mice were allowed to acclimate freely in the experimental apparatus for 10 min. Objects A and B were placed into the box, and the mice were allowed to explore for 5 min. We then recorded the exploration time and times. After 1 h, A and C or B and C were placed into the box. After letting the mice explore for 5 min, we recorded the exploration time of the original object and the new object. Discrimination index = exploration time of new objects/total exploration time × 100%.
The MWM installation consisted of a circular pool (120 cm in diameter and 50 cm in height), camera equipment, and a computer analysis system. In the first stage, the platform position was fixed, and mice were placed into the pool from any three of the four origins on the pool facing away from the pool wall. The time when it took for the mouse to find the platform within 120 s, called escape latency, was recorded. The training period lasted 4 days. The escape latency of the mice was recorded daily, and the average value was used as an index to evaluate the ability of learning and memory. On the 5th day, the platform was evacuated by the experimenter. The mice were placed against the platform into the water from any water entry point, and they were allowed to swim freely for 60 s. We then recorded the number of times that they crossed the platform.

Structures are written as SMILES. pKd: −log10 of the molar value.

T1 sequence (P54645 13-559 limits assumed): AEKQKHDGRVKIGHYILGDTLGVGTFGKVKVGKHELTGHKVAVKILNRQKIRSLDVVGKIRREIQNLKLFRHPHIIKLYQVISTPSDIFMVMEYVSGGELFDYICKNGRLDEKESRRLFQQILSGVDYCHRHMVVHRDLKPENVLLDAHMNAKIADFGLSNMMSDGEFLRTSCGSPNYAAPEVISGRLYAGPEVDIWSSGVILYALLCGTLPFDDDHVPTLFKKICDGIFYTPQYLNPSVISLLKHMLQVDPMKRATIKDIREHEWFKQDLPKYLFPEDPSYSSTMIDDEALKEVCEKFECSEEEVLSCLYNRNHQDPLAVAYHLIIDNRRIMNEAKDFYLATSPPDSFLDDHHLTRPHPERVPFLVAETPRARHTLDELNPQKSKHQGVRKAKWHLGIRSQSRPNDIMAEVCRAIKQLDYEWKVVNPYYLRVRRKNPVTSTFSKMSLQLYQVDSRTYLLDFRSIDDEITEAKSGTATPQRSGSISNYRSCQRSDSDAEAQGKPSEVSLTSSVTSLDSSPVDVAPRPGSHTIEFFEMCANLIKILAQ
T1 sequence (P80386 whole entry partner): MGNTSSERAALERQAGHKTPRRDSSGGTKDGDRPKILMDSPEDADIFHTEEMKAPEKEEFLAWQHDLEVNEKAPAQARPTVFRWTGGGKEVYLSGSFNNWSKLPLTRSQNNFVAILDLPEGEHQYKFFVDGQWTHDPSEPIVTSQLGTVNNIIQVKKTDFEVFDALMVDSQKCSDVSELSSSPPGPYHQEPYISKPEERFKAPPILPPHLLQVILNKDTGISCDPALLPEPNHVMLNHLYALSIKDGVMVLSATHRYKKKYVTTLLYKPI
T1 sequence (P80385 whole entry): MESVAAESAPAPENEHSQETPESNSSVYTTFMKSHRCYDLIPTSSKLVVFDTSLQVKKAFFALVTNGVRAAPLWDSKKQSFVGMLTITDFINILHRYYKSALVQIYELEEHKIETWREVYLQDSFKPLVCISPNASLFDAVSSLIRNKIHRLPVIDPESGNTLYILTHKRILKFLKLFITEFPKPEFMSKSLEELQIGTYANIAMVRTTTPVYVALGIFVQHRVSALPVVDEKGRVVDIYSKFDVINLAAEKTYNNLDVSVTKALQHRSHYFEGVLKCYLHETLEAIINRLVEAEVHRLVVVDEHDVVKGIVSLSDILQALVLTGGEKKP

In test [1] (1:1 Langmuir binding model), `CC(C)CCOC(=O)C1=CO[C@@H](O[C@@H]2O[C@H](CO)[C@@H](O)[C@H](O)[C@H]2O)C2C(CO)=CCC12` (some centres unmarked) [GENI, Geniposidic 4-isoamyl ester] showed a pKd of 5.97. The kon in test [1] (association rate, read-out: Ka) was 2320 M⁻¹ s⁻¹. Moreover, the “stability of MAPK against pronase (DARTS)” value in the test with MAPK is listed as “dramatically enhanced the stability”. In the test on BV-2 cells (8 h), the “secretion of LPS-stimulated pro-inflammatory IL-6” value was “significantly reduced”. Also, the “production of NO” value in the test with BV-2 cells (24 h) is reported as “significantly reduced”. For the same compound, in the test on natural aging AD mice (GENI 25 mg/kg), the “escape latency, first 4 days of the training phase, water maze test” value is “significantly reduce” and the “number of crossing platforms, fifth day, water maze test” value is on record as “increase”. Besides, in the test on natural aging AD mice (GENI 25 mg/kg intragastrically once a day), the “cognitive function (alternating arm entry rate, novel object recognition index) in Y maze and NOR tests” value is “improvement”.

As usually defined, the pKd is the negative decadic logarithm of the Kd, by convention in mol/L. Low values mean a large Kd, high ones a small Kd.

The values are drawn from paper PMC11763059, “GENI as an AMPK Activator Binds α and γ Subunits and Improves the Memory Dysfunction of Alzheimer’s Disease Mouse Models via Autophagy and Neuroprotection” (Antioxidants, 2025).
